Key:
[1] = biological target: human NK1 receptor (Homo sapiens, UniProt P25103); assay: NK1 receptor binding, [3H]substance P displacement, CHO cell membranes; conditions: first value of the cell pKi NK1/NK3; human NK1 receptor, [3H]substance P
[2] = biological target: T1, Recombinant human NK3 (hNK3) receptor (Homo sapiens, UniProt P29371); assay: NK3 receptor binding, [3H]SR142801 displacement, membrane preparations; conditions: second value of the cell pKi NK1/NK3; hNK3 receptor, [3H]SR142801
T1 construct: expressed in transfected cells
T1 sequence (P29371 1-465): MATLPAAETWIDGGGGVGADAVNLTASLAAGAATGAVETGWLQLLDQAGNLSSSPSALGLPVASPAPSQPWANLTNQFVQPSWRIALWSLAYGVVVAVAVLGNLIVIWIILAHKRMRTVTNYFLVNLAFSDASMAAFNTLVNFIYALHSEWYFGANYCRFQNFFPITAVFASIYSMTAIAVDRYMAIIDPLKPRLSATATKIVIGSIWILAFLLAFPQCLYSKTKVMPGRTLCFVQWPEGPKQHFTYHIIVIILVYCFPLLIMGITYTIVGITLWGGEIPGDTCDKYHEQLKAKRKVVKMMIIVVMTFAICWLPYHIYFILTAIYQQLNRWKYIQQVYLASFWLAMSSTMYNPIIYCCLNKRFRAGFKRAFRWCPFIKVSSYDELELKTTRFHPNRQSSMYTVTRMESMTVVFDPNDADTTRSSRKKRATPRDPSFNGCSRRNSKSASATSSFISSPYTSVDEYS
Outline: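 Buffer: Tris-HCl 50 mM pH 7.4, BSA 0.1%, MnCl2 4 mM, phosphoramidon 1 μM. ~2.5 μg membrane/well, 90 min RT. NSB with SB222200 (10 μM). Vacuum filtration over 0.3% PEI-treated GF/C, cold Tris/BSA washes, scintillation count; duplicates, ≥2 experiments.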

human NK1 receptor, sequence (P25103 whole entry): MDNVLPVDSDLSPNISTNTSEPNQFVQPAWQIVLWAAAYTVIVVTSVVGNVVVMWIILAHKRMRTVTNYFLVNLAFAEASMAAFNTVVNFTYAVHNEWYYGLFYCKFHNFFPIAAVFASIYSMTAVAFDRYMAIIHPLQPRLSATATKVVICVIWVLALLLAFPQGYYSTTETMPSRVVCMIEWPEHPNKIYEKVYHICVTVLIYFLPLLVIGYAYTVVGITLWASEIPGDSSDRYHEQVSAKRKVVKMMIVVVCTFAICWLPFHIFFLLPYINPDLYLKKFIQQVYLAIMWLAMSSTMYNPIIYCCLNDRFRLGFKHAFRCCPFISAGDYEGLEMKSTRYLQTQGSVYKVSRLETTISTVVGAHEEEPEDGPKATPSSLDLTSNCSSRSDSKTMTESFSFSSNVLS

| SMILES | Ki [1] | Ki [2] | pKi NK1 [1] | pKi NK3 [2] |
| --- | --- | --- | --- | --- |
| Cc1cc(F)ccc1-c1cc(NCCO)ncc1N(C)C(=O)C(C)(C)c1cc(Cl)cc(Cl)c1 [Example 21, 2-(3,5-Dichloro-phenyl)-N-[4-(4-fluoro-2-methyl-phenyl)-6-(2-hydroxy-ethylamino)-pyridin-3-yl]-N-methyl-isobutyramide] | 1.29 nM | 8.71 nM | – | – |
| Cc1cc(F)ccc1-c1cc(N2CCC[C@H]2CO)ncc1N(C)C(=O)C(C)(C)c1cc(Cl)cc(Cl)c1 [Example 22, (S)-2-(3,5-Dichloro-phenyl)-N-[4-(4-fluoro-2-methyl-phenyl)-6-(2-hydroxymethyl-pyrrolidin-1-yl)-pyridin-3-yl]-N-methyl-isobutyramide] | 5.13 nM | 1.17 nM | – | – |
| Cc1cc(F)ccc1-c1cc(N2CCC[C@H]2CO)ncc1N(C)C(=O)C(C)(C)c1cccc(C(F)(F)F)c1 [Example 26, (S)-N-[4-(4-Fluoro-2-methyl-phenyl)-6-(2-hydroxymethyl-pyrrolidin-1-yl)-pyridin-3-yl]-N-methyl-2-(3-trifluoromethyl-phenyl)-isobutyramide] | 3.02 nM | 5.75 nM | – | – |
| COc1cc(Cl)cc(C(C)(C)C(=O)N(C)c2cnc(N3CCC[C@H]3CO)cc2-c2ccc(F)cc2C)c1 [Example 30, (S)-2-(3-Chloro-5-methoxy-phenyl)-N-[4-(4-fluoro-2-methyl-phenyl)-6-(2-hydroxymethyl-pyrrolidin-1-yl)-pyridin-3-yl]-N-methyl-isobutyramide] | 3.72 nM | 3.55 nM | – | – |
| Cc1cc(C)cc(C(C)(C)C(=O)N(C)c2cnc(N3CCC[C@H]3CO)cc2-c2ccc(F)cc2C)c1 [Example 32, (S)-(3,5-Dimethyl-phenyl)-N-[4-(4-fluoro-2-methyl-phenyl)-6-(2-hydroxymethyl-pyrrolidin-1-yl)-pyridin-3-yl]-N-methyl-isobutyramide] | – | – | 8.51 | 8.52 |
| CN(C(=O)C(C)(C)c1cc(Cl)cc(OC(F)F)c1)c1cnc(N2CCC[C@H]2CO)cc1-c1ccccc1Cl [Example 34, (S)-2-(3-Chloro-5-difluoromethoxy-phenyl)-N-[4-(2-chloro-phenyl)-6-(2-hydroxymethyl-pyrrolidin-1-yl)-pyridin-3-yl]-N-methyl-isobutyramide] | 3.89 nM | 0.832 nM | – | – |
| CN(C(=O)C(C)(C)c1cc(Cl)cc(OC(F)F)c1)c1cnc(N2C[C@H](O)C[C@H]2CO)cc1-c1ccccc1Cl [Example 35, (2S,4R)-2-(3-Chloro-5-difluoromethoxy-phenyl)-N-[4-(2-chloro-phenyl)-6-(4-hydroxy-2-hydroxymethyl-pyrrolidin-1-yl)-pyridin-3-yl]-N-methyl-isobutyramide] | 1.95 nM | 0.55 nM | – | – |
| Cc1ccccc1-c1cc(N2CCC[C@H]2CO)ncc1N(C)C(=O)C(C)(C)c1cc(Cl)cc(OC(F)F)c1 [Example 36, (S)-2-(3-Chloro-5-difluoromethoxy-phenyl)-N-[6-(2-hydroxymethyl-pyrrolidin-1-yl)-4-o-tolyl-pyridin-3-yl]-N-methyl-isobutyramide] | 4.27 nM | 0.708 nM | – | – |
| Cc1ccccc1-c1cc(N2C[C@H](O)C[C@H]2CO)ncc1N(C)C(=O)C(C)(C)c1cc(Cl)cc(OC(F)F)c1 [Example 37, (2S,4R)-2-(3-Chloro-5-difluoromethoxy-phenyl)-N-[6-(4-hydroxy-2-hydroxymethyl-pyrrolidin-1-yl)-4-o-tolyl-pyridin-3-yl]-N-methyl-isobutyramide] | 1.2 nM | 0.617 nM | – | – |
| Cc1cc(F)ccc1-c1cc(N2CCC[C@H]2CO)ncc1N(C)C(=O)C(C)(C)c1cc(Cl)cc(OC(F)F)c1 [Example 38, (S)-2-(3-Chloro-5-difluoromethoxy-phenyl)-N-[4-(4-fluoro-2-methyl-phenyl)-6-(2-hydroxymethyl-pyrrolidin-1-yl)-pyridin-3-yl]-N-methyl-isobutyramide] | 3.55 nM | 2.24 nM | – | – |
| CC(=O)N[C@H]1C[C@@H](CO)N(c2cc(-c3ccccc3Cl)c(N(C)C(=O)C(C)(C)c3cc(C(F)(F)F)cc(C(F)(F)F)c3)cn2)C1 [Example 40, (2S,4S)-N-[6-(4-Acetylamino-2-hydroxymethyl-pyrrolidin-1-yl)-4-(2-chloro-phenyl)-pyridin-3-yl]-2-(3,5-bis-trifluoromethyl-phenyl)-N-methyl-isobutyramide] | 0.646 nM | 1.02 nM | – | – |
| CN(C(=O)C(C)(C)c1cc(C(F)(F)F)cc(C(F)(F)F)c1)c1cnc(N2CCC[C@@H]2CO)cc1-c1ccccc1Cl [Example 41, (R)-2-(3,5-Bis-trifluoromethyl-phenyl)-N-[4-(2-chloro-phenyl)-6-(2-hydroxymethyl-pyrrolidin-1-yl)-pyridin-3-yl]-N-methyl-isobutyramide] | 1.07 nM | 7.59 nM | – | – |
| CN(C(=O)C(C)(C)c1cc(C(F)(F)F)cc(C(F)(F)F)c1)c1cnc(N2CCC[C@H]2CO)cc1-c1ccccc1Cl [Example 42, (S)-2-(3,5-Bis-trifluoromethyl-phenyl)-N-[4-(2-chloro-phenyl)-6-(2-hydroxymethyl-pyrrolidin-1-yl)-pyridin-3-yl]-N-methyl-isobutyramide] | 1.66 nM | 0.832 nM | – | – |
| CC(=O)N[C@H]1CCN(c2cc(-c3ccccc3Cl)c(N(C)C(=O)C(C)(C)c3cc(C(F)(F)F)cc(C(F)(F)F)c3)cn2)C1 [Example 43, (S)-N-[6-(3-Acetylamino-pyrrolidin-1-yl)-4-(2-chloro-phenyl)-pyridin-3-yl]-2-(3,5-bis-trifluoromethyl-phenyl)-N-methyl-isobutyramide] | 2.4 nM | 35.5 nM | – | – |

Continued, in another order:

| Ki [1] | Ki [2] | SMILES | pKi NK1 [1] | pKi NK3 [2] |
| --- | --- | --- | --- | --- |
| 0.891 nM | 1.58 nM | Cc1cc(F)ccc1-c1cc(N2C[C@H](O)C[C@H]2CO)ncc1N(C)C(=O)C(C)(C)c1cc(Cl)cc(Cl)c1 [Example 23, (2S,4R)-2-(3,5-Dichloro-phenyl)-N-[4-(4-fluoro-2-methyl-phenyl)-6-(4-hydroxy-2-hydroxymethyl-pyrrolidin-1-yl)-pyridin-3-yl]-N-methyl-isobutyramide] | – | – |
| 1.32 nM | 0.891 nM | Cc1cc(F)ccc1-c1cc(N2CCC[C@H]2CO)ncc1N(C)C(=O)C(C)(C)c1cc(F)cc(C(F)(F)F)c1 [Example 24, (S)-N-[4-(4-Fluoro-2-methyl-phenyl)-6-(2-hydroxymethyl-pyrrolidin-1-yl)-pyridin-3-yl]-2-(3-fluoro-5-trifluoromethyl-phenyl)-N-methyl-isobutyramide] | – | – |
| 0.933 nM | 1.74 nM | Cc1cc(F)ccc1-c1cc(N2C[C@H](O)C[C@H]2CO)ncc1N(C)C(=O)C(C)(C)c1cc(F)cc(C(F)(F)F)c1 [Example 25, (2S,4R)-N-[4-(4-Fluoro-2-methyl-phenyl)-6-(4-hydroxy-2-hydroxymethyl-pyrrolidin-1-yl)-pyridin-3-yl]-2-(3-fluoro-5-trifluoromethyl-phenyl)-N-methyl-isobutyramide] | – | – |
| 1.51 nM | 10.7 nM | Cc1cc(F)ccc1-c1cc(N2C[C@H](O)C[C@H]2CO)ncc1N(C)C(=O)C(C)(C)c1cccc(C(F)(F)F)c1 [Example 27, (2S,4R)-N-[4-(4-Fluoro-2-methyl-phenyl)-6-(4-hydroxy-2-hydroxymethyl-pyrrolidin-1-yl)-pyridin-3-yl]-N-methyl-2-(3-trifluoromethyl-phenyl)-isobutyramide] | – | – |
| 2.82 nM | 3.98 nM | Cc1cc(F)ccc1-c1cc(N2CCC[C@H]2CO)ncc1N(C)C(=O)C(C)(C)c1cc(F)cc(F)c1 [Example 28, (S)-2-(3,5-Difluoro-phenyl)-N-[4-(4-fluoro-2-methyl-phenyl)-6-(2-hydroxymethyl-pyrrolidin-1-yl)-pyridin-3-yl]-N-methyl-isobutyramide] | – | – |
| 1.55 nM | 3.55 nM | Cc1cc(F)ccc1-c1cc(N2C[C@H](O)C[C@H]2CO)ncc1N(C)C(=O)C(C)(C)c1cc(F)cc(F)c1 [Example 29, (2S,4R)-2-(3,5-Difluoro-phenyl)-N-[4-(4-fluoro-2-methyl-phenyl)-6-(4-hydroxy-2-hydroxymethyl-pyrrolidin-1-yl)-pyridin-3-yl]-N-methyl-isobutyramide] | – | – |
| 0.977 nM | 1.66 nM | COc1cc(Cl)cc(C(C)(C)C(=O)N(C)c2cnc(N3C[C@H](O)C[C@H]3CO)cc2-c2ccc(F)cc2C)c1 [Example 31, (2S,4R)-2-(3-Chloro-5-methoxy-phenyl)-N-[4-(4-fluoro-2-methyl-phenyl)-6-(4-hydroxy-2-hydroxymethyl-pyrrolidin-1-yl)-pyridin-3-yl]-N-methyl-isobutyramide] | – | – |
| 1.17 nM | 3.02 nM | Cc1cc(C)cc(C(C)(C)C(=O)N(C)c2cnc(N3C[C@H](O)C[C@H]3CO)cc2-c2ccc(F)cc2C)c1 [Example 33, (2S,4R)-2-(3,5-Dimethyl-phenyl)-N-[4-(4-fluoro-2-methyl-phenyl)-6-(4-hydroxy-2-hydroxymethyl-pyrrolidin-1-yl)-pyridin-3-yl]-N-methyl-isobutyramide] | – | – |
| 1.05 nM | 1.29 nM | Cc1cc(F)ccc1-c1cc(N2C[C@H](O)C[C@H]2CO)ncc1N(C)C(=O)C(C)(C)c1cc(Cl)cc(OC(F)F)c1 [Example 39, (2S,4R)-2-(3-Chloro-5-difluoromethoxy-phenyl)-N-[4-(4-fluoro-2-methyl-phenyl)-6-(4-hydroxy-2-hydroxymethyl-pyrrolidin-1-yl)-pyridin-3-yl]-N-methyl-isobutyramide] | – | – |

Reference: patent publication US8404708B2, “Dual NK1/NK3 receptor antagonists” (Hoffmann-La Roche Inc., priority 2004, dated 2013)
